Assays:
COX-1 = target: T1, COX-1 (Ovis aries, UniProt P05979); assay: Colorimetric COX (ovine) inhibitor screening assay, COX-1; assay type: biochemical; settings: negative = inhibition vs non-treated control; for Cox-1 Inhibition (0.020%): 0.020% test compound, Table 2
T1 construct: purchased Cayman Chemical 760111
T1 sequence (P05979 25-600): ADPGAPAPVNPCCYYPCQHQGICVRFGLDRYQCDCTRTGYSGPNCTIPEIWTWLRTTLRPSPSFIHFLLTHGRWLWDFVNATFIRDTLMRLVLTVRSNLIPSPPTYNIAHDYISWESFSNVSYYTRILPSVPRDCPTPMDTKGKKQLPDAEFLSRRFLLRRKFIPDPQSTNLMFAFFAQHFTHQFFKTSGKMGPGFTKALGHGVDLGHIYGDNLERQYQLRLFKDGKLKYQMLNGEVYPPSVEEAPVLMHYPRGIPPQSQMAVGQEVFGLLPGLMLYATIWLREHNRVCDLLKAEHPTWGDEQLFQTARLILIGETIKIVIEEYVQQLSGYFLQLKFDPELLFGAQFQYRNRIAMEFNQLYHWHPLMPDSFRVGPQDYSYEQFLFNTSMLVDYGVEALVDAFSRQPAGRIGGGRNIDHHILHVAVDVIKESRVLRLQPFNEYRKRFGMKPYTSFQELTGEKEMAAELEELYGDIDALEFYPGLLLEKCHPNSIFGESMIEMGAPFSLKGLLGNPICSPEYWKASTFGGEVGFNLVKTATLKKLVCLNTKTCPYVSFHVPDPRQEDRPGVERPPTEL
From the text: (§1) Cyclooxygenase (COX) assay: An in vitro cyclooxygenase-1 and -2 (COX-1, -2) inhibition assay. […] The cyclooxygenase activity converts arachidonic acid to a hydroperoxy endoperoxide (Prostaglandin G2; PGG2) and the peroxidase component reduces the endoperoxide (Prostaglandin H2; PGH2) to the corresponding alcohol, the precursor of prostaglandins, thromboxanes, and prostacyclins. This COX Inhibitor Screening Assay measures the peroxidase component of cyclooxygenases. The peroxidase activity is assayed colorimetrically by monitoring the appearance of oxidized N,N,N′,N′-tetramethyl-p-phenylenediamine (TMPD). This inhibitor screening assay includes both COX-1 and COX-2 enzymes in order to screen isozyme-specific inhibitors.
(§2) Following manufacturer instructions for the Colormetric COX (ovine) Inhibitor screening assay (#760111, Cayman Chemical), purified cyclooxygnase enzyme (COX-1 or COX-2), heme and test compounds were mixed in assay buffer and incubated with shaking for 15 min at room temperature. Following incubation, arachidonic acid and colorimetric substrate were added to initiate the reaction and incubated for an additional 15 min at room temperature with shaking. Color progression was evaluated by fluoresecence plate reading at 590 nm. The percent inhibition of COX-1 or COX-2 activity was calculated compared to non-treated controls to determine the ability of test compounds to inhibit the activity of purified enzyme.

15-lipoxygenase = target: T2, 15-lipoxygenase (Glycine max, UniProt P08170); assay: Lipoxygenase (LO) inhibition assay; assay type: biochemical; settings: 0.1% test compound; negative = inhibition vs non-treated control; Table 2
T2 construct: purchased Cayman Chemical 760700
T2 sequence (P08170 1-839): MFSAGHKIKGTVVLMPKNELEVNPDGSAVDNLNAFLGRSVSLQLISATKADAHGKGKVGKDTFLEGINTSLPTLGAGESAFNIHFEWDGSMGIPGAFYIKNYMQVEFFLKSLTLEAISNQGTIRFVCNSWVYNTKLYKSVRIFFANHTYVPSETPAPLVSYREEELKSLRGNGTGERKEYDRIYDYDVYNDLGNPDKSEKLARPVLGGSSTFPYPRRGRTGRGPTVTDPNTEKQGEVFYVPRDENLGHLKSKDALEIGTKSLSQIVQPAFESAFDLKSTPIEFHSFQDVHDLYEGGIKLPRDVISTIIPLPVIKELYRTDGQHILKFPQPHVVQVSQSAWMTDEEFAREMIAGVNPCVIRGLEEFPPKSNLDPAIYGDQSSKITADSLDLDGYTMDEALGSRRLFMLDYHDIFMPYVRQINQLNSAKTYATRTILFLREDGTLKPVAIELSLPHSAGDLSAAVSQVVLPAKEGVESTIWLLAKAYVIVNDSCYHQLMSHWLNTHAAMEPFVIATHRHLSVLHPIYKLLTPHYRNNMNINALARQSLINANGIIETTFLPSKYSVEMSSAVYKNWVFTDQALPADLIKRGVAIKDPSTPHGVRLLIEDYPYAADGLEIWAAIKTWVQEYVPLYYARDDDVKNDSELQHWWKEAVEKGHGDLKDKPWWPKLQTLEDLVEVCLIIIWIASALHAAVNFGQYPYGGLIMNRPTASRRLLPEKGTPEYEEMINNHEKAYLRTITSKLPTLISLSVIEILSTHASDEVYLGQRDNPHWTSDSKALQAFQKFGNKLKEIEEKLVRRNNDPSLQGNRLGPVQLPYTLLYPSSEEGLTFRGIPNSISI
Method: Lipoxygenase (LO) assay: An in vitro lipoxygenase (LO) inhibition assay. LOs are non-heme iron-containing dioxygenases that catalyze the addition of molecular oxygen to fatty acids. Linoleate and arachidonate are the main substrates for LOs in plants and animals. […] This assay provides an accurate and convenient method for screening lipoxygenase inhibitors by measuring the hydroperoxides generated from the incubation of a lipoxygenase (5-, 12-, or 15-LO) with arachidonic acid.
Following incubation, arachidonic acid was added to initiate the reaction and mixtures incubated for an additional 10 min at room temperature. Colorimetric substrate was added to terminate catalysis and color progression was evaluated by fluorescence plate reading at 490 nm. The percent inhibition of lipoxyganse activity was calculated compared to non-treated controls to determine the ability of test compounds to inhibit the activity of purified enzyme.

MMP3 = target: T3, MMP3 (Homo sapiens, UniProt P08254); assay: Matrix metalloproteinase enzyme activity assay, MMP3; assay type: biochemical; settings: 0.001% test compound; negative = inhibition vs diluent control; Table 2
T3 construct: purchased BioMol International AK-400
T3 sequence (P08254 100-272 limits assumed): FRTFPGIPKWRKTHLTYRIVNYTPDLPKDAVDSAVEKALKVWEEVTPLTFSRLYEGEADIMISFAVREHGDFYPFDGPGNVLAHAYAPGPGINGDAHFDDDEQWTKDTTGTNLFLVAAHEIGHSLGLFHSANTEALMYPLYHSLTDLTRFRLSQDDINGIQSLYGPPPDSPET
From the text: (§3) Matrix metalloproteinase enzyme activity (MMP3; MMP9) assay: An in vitro matrix metalloprotease (MMP) inhibition assay. MMPs are extracellular proteases that play a role in many normal and disease states by virtue of their broad substrate specificity. MMP3 substrates include collagens, fibronectins, and laminin; while MMP9 substrates include collagen VII, fibronectins and laminin. Using Colorimetric Drug Discovery kits from BioMol International for MMP3 (AK-400) and MMP-9 (AK-410), this assay is designed to measure protease activity of MMPs using a thiopeptide as a chromogenic substrate (Ac-PLG-[2-mercapto-4-methyl-pentanoyl]-LG-OC2H5)5,6. The MMP cleavage site peptide bond is replaced by a thioester bond in the thiopeptide. Hydrolysis of this bond by an MMP produces a sulfhydryl group, which reacts with DTNB [5,5′-dithiobis(2-nitrobenzoic acid), Ellman's reagent] to form 2-nitro-5-thiobenzoic acid, which can be detected by its absorbance at 412 nm (ε=13,600 M-1 cm-1 at pH 6.0 and above 7). Data is reflected as % inhibition of the purified enzyme activity.

MMP9 = target: T4, MMP9 (Homo sapiens, UniProt P14780); assay: Matrix metalloproteinase enzyme activity assay, MMP9; assay type: biochemical; settings: 0.001% test compound; negative = inhibition vs diluent control; Table 2
T4 construct: purchased BioMol International AK-410
T4 sequence (P14780 107-444 limits assumed): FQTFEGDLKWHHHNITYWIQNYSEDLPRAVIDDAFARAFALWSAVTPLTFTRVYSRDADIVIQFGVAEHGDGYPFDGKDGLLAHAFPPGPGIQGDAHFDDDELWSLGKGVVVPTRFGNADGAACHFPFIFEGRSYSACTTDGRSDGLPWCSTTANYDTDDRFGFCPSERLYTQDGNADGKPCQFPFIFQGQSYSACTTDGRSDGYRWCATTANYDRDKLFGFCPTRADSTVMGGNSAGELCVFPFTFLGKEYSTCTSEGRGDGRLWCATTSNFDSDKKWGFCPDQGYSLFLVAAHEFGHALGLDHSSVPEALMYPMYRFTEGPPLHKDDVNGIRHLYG
From the text: as §3

COX-2 = target: T5, COX-2 (Ovis aries, UniProt P79208); assay: Colorimetric COX (ovine) inhibitor screening assay, COX-2; assay type: biochemical; settings: 0.001% test compound; for inhibition at 0.001 %: 0.25 h
T5 construct: purchased Cayman Chemical 760111
T5 sequence (P79208 17-603): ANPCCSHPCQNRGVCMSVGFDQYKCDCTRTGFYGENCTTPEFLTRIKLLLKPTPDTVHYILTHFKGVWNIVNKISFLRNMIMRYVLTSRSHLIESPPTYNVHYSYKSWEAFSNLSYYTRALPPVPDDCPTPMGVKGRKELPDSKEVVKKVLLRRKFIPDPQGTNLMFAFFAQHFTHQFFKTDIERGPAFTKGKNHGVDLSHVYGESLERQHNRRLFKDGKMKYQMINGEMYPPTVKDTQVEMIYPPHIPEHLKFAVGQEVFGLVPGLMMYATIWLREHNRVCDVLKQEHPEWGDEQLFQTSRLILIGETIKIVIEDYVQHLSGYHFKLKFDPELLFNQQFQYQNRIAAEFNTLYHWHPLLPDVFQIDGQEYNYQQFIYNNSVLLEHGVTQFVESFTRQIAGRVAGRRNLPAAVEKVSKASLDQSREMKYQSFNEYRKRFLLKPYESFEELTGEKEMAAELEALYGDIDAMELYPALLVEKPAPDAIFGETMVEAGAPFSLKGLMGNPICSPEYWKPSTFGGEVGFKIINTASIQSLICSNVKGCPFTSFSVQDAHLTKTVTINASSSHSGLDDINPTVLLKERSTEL
From the text: as §1, §2

TNF-α = TNF-α secretion by PMA-treated human keratinocytes (ELISA); assay type: cell-based; settings: 0.01% test compound; PMA 10 ng/ml, 6 hours; % change in secreted TNF-α, negative = reduction; Table 2
From the text: Tumor necrosis factor alpha (TNF-α) assay: The prototype ligand of the TNF superfamily, TNF-α, is a pleiotropic cytokine that plays a central role in inflammation. Increase in its expression is associated with an up regulation in pro-inflammatory activity. This bioassay analyzes the effect of compounds on the production of TNF-α by human epidermal keratinocytes. The endpoint of this assay is a spectrophotometric measurement that reflects the presence of TNF-α and cellular viability. The assay employs the quantitative sandwich enzyme immunoassay technique whereby a monoclonal antibody specific for TNF-α has been pre-coated onto a microplate. Standards and samples are pipetted into the wells and any TNF-α present is bound by the immobilized antibody. After washing away any unbound substances, an enzyme-linked polyclonal antibody specific for TNF-α is added to the wells. Following a wash to remove any unbound antibody-enzyme reagent, a substrate solution is added to the wells and color develops in proportion to the amount of TNF-α bound in the initial step using a microplate reader for detection at 450 nm. The color development is stopped and the intensity of the color is measured.
Subconfluent normal human adult keratinocytes (Cascade Biologics) cultivated in EpiLife standard growth medium (Cascade Biologics) at 37° C. in 5% CO2, were treated with PMA (10 ng/ml, Sigma Chemical, #P1585-1MG) and test compounds for 6 hours. […] Following incubation, cell culture medium was collected and the amount of TNF-a secretion quantified using a sanwhich enzyme linked immuno-sorbant assay (ELISA) from R&D Systems ([…]). Following all manufacturer instructions, medium from treated cells was incubated with antibodies directed against human TNF-α which were bound to microtiter plates. The amount of TNF-α protein was quantified by comparison of optical density units to standard concentrations of purified TNF-α protein. Values are calculated as % change in the amount of TNF-α protein secreted between control and treated samples. […]

| LO Inhibition (0.1%) (15-lipoxygenase) [%] | MMP3 Inhibition (0.001%) (MMP3) [%] | Compound | TNF-α Inhibition (0.01%) (TNF-α) [%] | further results |
| --- | --- | --- | --- | --- |
| −37.86 |  | CC(=O)OC1CCC(C(C)(C)C)CC1 (stereo not shown) [Vertenex ® H.C., 4-tert-butylcyclohexyl acetate] |  | Cox-1 Inhibition (0.020%) (COX-1): −18.50% |
| −26.37 |  | 3a,4,5,6,7,7a-hexahydro-4,7-methano-1h-inden-5(or 6)-yl acetate [Cyclacet] |  |  |
|  | −25.09 | CC(C)=CCCC1=CCCC(C)(C=O)C1 (stereo not shown) [Precyclemone B, 1-methyl-3-(4-methylpent-3-enyl)cyclohex-3-enecarbaldehyde] |  |  |
| −27.46 |  | CCCCCC/C=C/C(=O)OC [Neofolione, methyl non-2-enoate] | −53.90 |  |
| −20.45 |  | CC(C)=CCCC(C)C=O (stereo not shown) [Melanol, 2,6-dimethyl-5-heptenal] |  |  |

More lines, now with the values behind:

| Compound | LO Inhibition (0.1%) (15-lipoxygenase) [%] | MMP3 Inhibition (0.001%) (MMP3) [%] | TNF-α Inhibition (0.01%) (TNF-α) [%] | further results |
| --- | --- | --- | --- | --- |
| 2,6-nonadien-1-al (trans, trans; trans, cis) | −45.58 | −20.34 |  | MMP9 Inhibition (0.001%) (MMP9): −32.53%; Cox-2 Inhibition (0.001%) (COX-2; negative = inhibition vs non-treated control, Table 2): −17.58%; Cox-1 Inhibition (0.020%) (COX-1): −11.42% |
| CCCCCCCCC(C)C=O (stereo not shown) [Aldehyde C-11 MOA, 2-methyldecanal] |  |  | −38.68 |  |
| CCCC/C=C/C=C/C=O [2,4-nonadien-1-al] |  | −23.75 |  | MMP9 Inhibition (0.001%) (MMP9): −19.87%; inhibition at 0.001 % (COX-2; Table 2): 21.1% |
| 3-(4-ethylphenyl)-2,2-dimethylpropanal and 3-(2-ethylphenyl)-2,2-dimethylpropanal [Floralozone] |  |  | −33.20 |  |
| CC(=O)OCCC(C)CCC=C(C)C (stereo not shown) [Citronellyl Acetate, 3,7-dimethyl-6-octen-1-yl acetate] |  |  |  | inhibition at 0.001 % (COX-2; Table 4): 20.9%; Cox-1 Inhibition (0.001%) (COX-1; 0.001% test compound, Table 4): −27.99% |
